Test systems include BT-549 breast; DU-145 prostate; HL-60(TB) leukemia; HOP-62 NSCLC; IGROV1 ovarian; MOLT-4 leukemia; SF-295 CNS; SK-OV-3 ovarian; SN12C renal; U251 CNS.
Common to all, as to assay: inhibition of tumour cell growth, NCI panel, 48 h

“And” between values parts separate entries of the source, which are not always exact repeats. Equal values may be shown once.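 Exposure lasted 48 hours, with cells grown in 96-well plates and compounds tested at five concentrations. At the GI50, growth is halved. Definition used: TGI = concentration required for complete inhibition of growth.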

Take `O=C(OCCBr)c1ccc(Cl)c([N+](=O)[O-])c1`: the GI50 with BT-549 breast was 18.1 µM; in the test with DU-145 prostate, 2.31 µM; in the test on HL-60(TB) leukemia it was 15.7 µM; in the test on HOP-62 NSCLC, 1.91 µM; in the test on IGROV1 ovarian, 16.5 µM; with MOLT-4 leukemia, 23.7 µM. Besides, the GI50 is 15.5 µM in the test on SF-295 CNS, 17.2 µM with SK-OV-3 ovarian, 17.1 µM with SN12C renal and 1.71 µM in the test on U251 CNS. Further, the TGI in the test with BT-549 breast was determined as 33.1 µM; with DU-145 prostate, 5.27 µM; with HL-60(TB) leukemia, 42.6 µM; with HOP-62 NSCLC it was 3.63 µM; with IGROV1 ovarian, 37.6 µM; in the test on MOLT-4 leukemia, 55.3 µM. Moreover, the TGI with SF-295 CNS came out at 30.5 µM; in the test on SK-OV-3 ovarian it was 31 µM; in the test with SN12C renal it was 33.2 µM; with U251 CNS it was 3.2 µM.
For the molecule `Nc1nc(N)c(N=O)c(OCC2CCCCC2)n1`, the GI50 in the test with BT-549 breast is 4.8 µM; in the test on DU-145 prostate, 5.93 µM; in the test with HL-60(TB) leukemia, 10.7 µM; in the test on IGROV1 ovarian, 3.69 µM; in the test with MOLT-4 leukemia, 7.65 µM; with SK-OV-3 ovarian it was 27.9 µM. Besides, the GI50 was 5.87 µM in the test on SN12C renal and 13.9 µM in the test with U251 CNS. Moreover, the TGI is 61 µM and > 84.9 µM in the test on BT-549 breast; more than 100 µM in the test with DU-145 prostate; 53.8 µM and 58.9 µM with HL-60(TB) leukemia; > 100 µM and 76.5 µM with HOP-62 NSCLC; 24.1 µM and 24.5 µM in the test on IGROV1 ovarian; > 100 µM and 51 µM with MOLT-4 leukemia. Besides, the TGI is 61.2 µM and 77.2 µM in the test with SF-295 CNS; > 80.9 µM and 74.3 µM in the test with SK-OV-3 ovarian; > 100 µM and 62.8 µM with SN12C renal; > 100 µM and 52.5 µM in the test on U251 CNS.
With `CCN1C(=O)N(CC)C2C1NN=c1s/c(=C\c3cc4ccccc4[nH]3)c(=O)n12` (stereo not drawn), the GI50 is 0.0178 µM with BT-549 breast; 0.0225 µM in the test on DU-145 prostate; less than 0.0117 µM in the test with HL-60(TB) leukemia; 0.0412 µM in the test with HOP-62 NSCLC; 0.0139 µM in the test with IGROV1 ovarian; less than 0.018 µM in the test on MOLT-4 leukemia. The GI50 with SF-295 CNS is less than 0.0112 µM; in the test with SK-OV-3 ovarian, 0.0246 µM; in the test on SN12C renal it was 0.0241 µM; in the test with U251 CNS, 0.0383 µM. In addition, the TGI with BT-549 breast was 16 µM; in the test on DU-145 prostate it was more than 100 µM; with HL-60(TB) leukemia it was less than 0.0191 µM; in the test with HOP-62 NSCLC, 18.7 µM; in the test on IGROV1 ovarian it was 12.2 µM; in the test on MOLT-4 leukemia, more than 100 µM. The TGI with SF-295 CNS came out at 14.8 µM; with SK-OV-3 ovarian, 17.3 µM; in the test on SN12C renal, 14.6 µM; in the test on U251 CNS, 17.4 µM.
Take `CCCCCCCOc1c(OC)cc(C2CC(=O)Nc3c2c(C)nn3-c2nc3ccccc3[nH]2)cc1OC` (stereo not drawn): the GI50 with BT-549 breast was 3.4 µM; with DU-145 prostate, 4.66 µM; in the test on HL-60(TB) leukemia it was 2.88 µM; in the test on HOP-62 NSCLC, 3.09 µM; in the test on IGROV1 ovarian, 2.74 µM; in the test on MOLT-4 leukemia, 2.8 µM. The GI50 in the test with SF-295 CNS was 2.33 µM; in the test on SK-OV-3 ovarian it was 2.77 µM; with SN12C renal, 3.48 µM; in the test with U251 CNS, 3.72 µM. Further, the TGI was 47.5 µM with BT-549 breast; more than 100 µM in the test on DU-145 prostate; 9.03 µM in the test with HL-60(TB) leukemia; 14.2 µM with HOP-62 NSCLC; 10.1 µM in the test on IGROV1 ovarian; 7.72 µM in the test with MOLT-4 leukemia. Also, the TGI in the test on SF-295 CNS was 7.74 µM; with SK-OV-3 ovarian, 7.55 µM; with SN12C renal it was more than 100 µM; in the test with U251 CNS it was more than 100 µM.
Consider `Nc1n[nH]c2ccc([C@@H]3Nc4ccc5[nH]ncc5c4[C@H]4C5C=CC(C5)[C@@H]34)cc12` (stereo partly drawn), for which the GI50 in the test on BT-549 breast is 0.32 µM; in the test on DU-145 prostate it was 0.445 µM; in the test with HL-60(TB) leukemia, 0.321 µM; with HOP-62 NSCLC, 0.52 µM; in the test on IGROV1 ovarian, 0.497 µM; in the test on MOLT-4 leukemia, 0.433 µM. For the same molecule, the GI50 with SF-295 CNS was 0.172 µM; with SK-OV-3 ovarian, 1.03 µM; in the test with SN12C renal, 0.52 µM; with U251 CNS, 0.433 µM. Moreover, the TGI in the test with BT-549 breast was 7.05 µM; in the test with DU-145 prostate, more than 30.8 µM; with HL-60(TB) leukemia, 4.39 µM; in the test on HOP-62 NSCLC, 20.7 µM; in the test with IGROV1 ovarian it was 24.9 µM; in the test on MOLT-4 leukemia, 40.7 µM. Moreover, the TGI in the test with SF-295 CNS stood at 4.38 µM; with SK-OV-3 ovarian it was 42.8 µM; in the test on SN12C renal it was 28.2 µM; with U251 CNS it was 22.2 µM.
For the molecule `CC1(C)CC[C@]2(C(=O)N3CCOCC3)CC[C@]3(C)C(=CC[C@@H]4[C@@]5(C)C/C(=C/c6ccncc6)C(=O)C(C)(C)[C@@H]5CC[C@]43C)[C@@H]2C1`, the GI50 in the test with BT-549 breast is 1.39 µM; in the test on DU-145 prostate, 2.77 µM; in the test on HL-60(TB) leukemia, 1.16 µM; in the test with HOP-62 NSCLC it was 1.76 µM; in the test with IGROV1 ovarian, 3.09 µM; in the test with MOLT-4 leukemia, 0.787 µM. Besides, the GI50 in the test on SF-295 CNS was 2.03 µM; in the test on SK-OV-3 ovarian, 3.58 µM; with SN12C renal, 2.37 µM; in the test on U251 CNS, 1.89 µM. In addition, the TGI is 10 µM in the test on BT-549 breast; 36.5 µM in the test on DU-145 prostate; 3.96 µM in the test with HL-60(TB) leukemia; 6.73 µM in the test on HOP-62 NSCLC; more than 100 µM with IGROV1 ovarian; more than 100 µM in the test on MOLT-4 leukemia. For the same molecule, the TGI was 34.8 µM with SF-295 CNS, more than 100 µM in the test with SK-OV-3 ovarian, 20.6 µM with SN12C renal and 10.3 µM in the test with U251 CNS.
`O=c1cc(N=Nc2ccc(O)cc2)[nH]c(=O)[nH]1`: the TGI with BT-549 breast, with DU-145 prostate, with HL-60(TB) leukemia, with HOP-62 NSCLC, in the test on IGROV1 ovarian and in the test with MOLT-4 leukemia was more than 100 µM each time. Besides, the TGI in the test on SF-295 CNS, with SK-OV-3 ovarian, with SN12C renal and in the test on U251 CNS was more than 100 µM each time.
For `O=C(CN1CCN(c2ccccc2)CC1)N1CCN(c2nnc(-c3ccc(Cl)cc3)c(-c3ccc(Cl)cc3)n2)CC1`, the GI50 was 4.34 µM in the test on BT-549 breast; 29.2 µM with DU-145 prostate; 3.16 µM with HL-60(TB) leukemia; 20.5 µM with HOP-62 NSCLC; 6.5 µM in the test with IGROV1 ovarian; 1.63 µM in the test on MOLT-4 leukemia. Also, the GI50 was 36 µM in the test with SF-295 CNS, more than 100 µM with SK-OV-3 ovarian, 13 µM in the test with SN12C renal and 8.16 µM with U251 CNS. For the same molecule, the TGI in the test on BT-549 breast is 63.6 µM; with DU-145 prostate, more than 100 µM; with HL-60(TB) leukemia, 19.4 µM; in the test with HOP-62 NSCLC, 75.9 µM; in the test with IGROV1 ovarian, 40.8 µM; with MOLT-4 leukemia, 9.97 µM. The TGI was more than 100 µM with SF-295 CNS, more than 100 µM in the test on SK-OV-3 ovarian, more than 100 µM in the test with SN12C renal and 31 µM in the test on U251 CNS.
`COc1ccc(/C=C2\CCC(CN(C)C)C2=O)cc1OC` (stereo not drawn): the TGI in the test on BT-549 breast was 14.3 µM; in the test on DU-145 prostate, 20.4 µM; in the test with HL-60(TB) leukemia, 8.62 µM; in the test on HOP-62 NSCLC it was 39.9 µM; in the test on IGROV1 ovarian, 33.1 µM; in the test with MOLT-4 leukemia, 7.35 µM. Further, the TGI in the test on SF-295 CNS was determined as 29.2 µM; with SK-OV-3 ovarian, 33.7 µM; in the test with SN12C renal it was 8.35 µM; in the test on U251 CNS, 30.8 µM.
Regarding `COc1ccc2c(c1)C(C)Cc1c(Cl)nc(C)nc1N2C` (stereo not drawn), the GI50 in the test on BT-549 breast is 2.22 µM; with DU-145 prostate it was 3.72 µM; with HL-60(TB) leukemia it was 2.54 µM; in the test with HOP-62 NSCLC it was 2.22 µM; in the test with IGROV1 ovarian, 4.41 µM; in the test with MOLT-4 leukemia it was 5.01 µM. Moreover, the GI50 was 1.74 µM with SF-295 CNS, 2.79 µM in the test with SK-OV-3 ovarian, 7.22 µM in the test on SN12C renal and 3.15 µM in the test with U251 CNS. In addition, the TGI in the test with BT-549 breast was 12.3 µM; with DU-145 prostate, 33.5 µM; in the test with HL-60(TB) leukemia, more than 100 µM; with HOP-62 NSCLC it was 36.3 µM; with IGROV1 ovarian, more than 100 µM; with MOLT-4 leukemia, more than 100 µM. For the same molecule, the TGI in the test on SF-295 CNS turned out to be 7.92 µM; in the test with SK-OV-3 ovarian it was 26.7 µM; in the test with SN12C renal, 25.1 µM; in the test on U251 CNS, 15.9 µM.
`CN(C)CC1CCCCCC(CN(C)C)C1=O` (stereo not drawn): the GI50 in the test on BT-549 breast was 3.46 µM; in the test with DU-145 prostate it was 3.19 µM; with HL-60(TB) leukemia, 2.24 µM; with HOP-62 NSCLC, 13 µM; in the test on IGROV1 ovarian it was 15.1 µM; with MOLT-4 leukemia, 2 µM. Besides, the GI50 in the test on SF-295 CNS was 19.7 µM; in the test with SK-OV-3 ovarian, 27.9 µM; with SN12C renal it was 7.9 µM; in the test on U251 CNS, 11.1 µM. Also, the TGI in the test with BT-549 breast came to 15.9 µM; with DU-145 prostate, 12.4 µM; in the test with HL-60(TB) leukemia, 8.57 µM; in the test with HOP-62 NSCLC it was 27.3 µM; in the test on IGROV1 ovarian it was 36.3 µM; in the test on MOLT-4 leukemia, 5.51 µM. Moreover, the TGI in the test with SF-295 CNS was 47.2 µM; in the test with SK-OV-3 ovarian, more than 93.6 µM; with SN12C renal, 22.8 µM; in the test with U251 CNS, 25.6 µM.
Consider `COc1cc(C2CC(c3ccc(N(C)C)cc3)=NN2C(C)=O)cc(OC)c1OC` (stereo not drawn), for which the GI50 is 2.53 µM with BT-549 breast; 2.29 µM in the test with DU-145 prostate; 7.94 µM with HL-60(TB) leukemia; 2.16 µM in the test on HOP-62 NSCLC; 2.65 µM in the test on IGROV1 ovarian; 12.8 µM with MOLT-4 leukemia. In addition, the GI50 in the test with SF-295 CNS was 0.374 µM; in the test with SK-OV-3 ovarian, 5.46 µM; in the test on SN12C renal it was 11.3 µM; in the test on U251 CNS, 1.65 µM. Further, the TGI was more than 100 µM in the test on BT-549 breast; more than 35 µM with DU-145 prostate; more than 25.1 µM in the test with HL-60(TB) leukemia; more than 100 µM in the test on HOP-62 NSCLC; more than 100 µM with IGROV1 ovarian; more than 100 µM in the test on MOLT-4 leukemia. Also, the TGI in the test with SF-295 CNS, with SK-OV-3 ovarian, in the test on SN12C renal and in the test on U251 CNS was more than 100 µM throughout.

(Values after PubChem BioAssay (NCI).)
